Source: ChEMBL document CHEMBL3871274 (Eur J Med Chem, 2016)
Blank lines part the entries; values can stand above or below the compound they belong to.

How the values were obtained:
Aurora kinase B [1] = target: T1, Aurora kinase B (Homo sapiens, UniProt Q96GD4)
[2] = Growth inhibition of human HCT116 cells after 96 hrs by MTS assay; format: functional; settings: HCT-116, 96 h
[3] = target: Aurora kinase C (Homo sapiens) (UniProt Q9UQB9); experiment: Inhibition of human recombinant full-length GST-tagged Aurora C expressed in baculovirus expression system at 1 uM
Sequence of Aurora kinase C (Homo sapiens) (Q9UQB9 whole entry, the tested form may be a part): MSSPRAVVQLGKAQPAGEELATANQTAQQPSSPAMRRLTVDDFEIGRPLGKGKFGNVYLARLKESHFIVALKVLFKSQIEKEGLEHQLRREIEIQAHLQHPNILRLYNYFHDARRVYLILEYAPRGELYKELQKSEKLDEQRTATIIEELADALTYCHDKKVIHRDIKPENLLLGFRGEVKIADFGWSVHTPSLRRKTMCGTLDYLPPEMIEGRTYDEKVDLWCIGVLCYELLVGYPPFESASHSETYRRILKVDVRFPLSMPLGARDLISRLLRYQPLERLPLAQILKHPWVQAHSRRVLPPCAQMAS

[4] = target: Receptor-type tyrosine-protein kinase FLT3 (Homo sapiens) (UniProt P36888); experiment: Inhibition of human recombinant His-tagged FLT3 cytoplasmic domain (564 to 958 residues) expressed in baculovirus expression system at 1 uM
[5] = target: Rho-associated protein kinase 2 (Homo sapiens) (UniProt O75116); experiment: Inhibition of human recombinant N-terminal GST-tagged ROCK2 catalytic domain (1 to 552 residues) expressed in baculovirus expression system at 1 uM
[6] = target: Angiopoietin-1 receptor (Homo sapiens) (UniProt Q02763); experiment: Inhibition of human recombinant GST-tagged TEK cytoplasmic domain (817 to 1101 residues) expressed in baculovirus expression system at 1 uM
[7] = target: Phosphatidylinositol 4-phosphate 3-kinase C2 domain-containing subunit alpha (Homo sapiens) (UniProt O00443); experiment: Inhibition of human recombinant N-terminal GST-tagged PIK3C2A catalytic domain expressed in baculovirus expression system at 1 uM
[8] = target: Vascular endothelial growth factor receptor 2 (Homo sapiens, UniProt P35968); experiment: Inhibition of human recombinant His-tagged KDR cytoplasmic domain (789 to 1356 residues) expressed in baculovirus expression system at 1 uM
[9] = target: Tyrosine-protein kinase JAK1 (Homo sapiens) (UniProt P23458); experiment: Inhibition of human recombinant GST-tagged JAK1 cytoplasmic domain (866 to 1154 residues) expressed in baculovirus expression system at 1 uM
Sequence of Tyrosine-protein kinase JAK1 (Homo sapiens) (P23458 whole entry, the tested form may be a part): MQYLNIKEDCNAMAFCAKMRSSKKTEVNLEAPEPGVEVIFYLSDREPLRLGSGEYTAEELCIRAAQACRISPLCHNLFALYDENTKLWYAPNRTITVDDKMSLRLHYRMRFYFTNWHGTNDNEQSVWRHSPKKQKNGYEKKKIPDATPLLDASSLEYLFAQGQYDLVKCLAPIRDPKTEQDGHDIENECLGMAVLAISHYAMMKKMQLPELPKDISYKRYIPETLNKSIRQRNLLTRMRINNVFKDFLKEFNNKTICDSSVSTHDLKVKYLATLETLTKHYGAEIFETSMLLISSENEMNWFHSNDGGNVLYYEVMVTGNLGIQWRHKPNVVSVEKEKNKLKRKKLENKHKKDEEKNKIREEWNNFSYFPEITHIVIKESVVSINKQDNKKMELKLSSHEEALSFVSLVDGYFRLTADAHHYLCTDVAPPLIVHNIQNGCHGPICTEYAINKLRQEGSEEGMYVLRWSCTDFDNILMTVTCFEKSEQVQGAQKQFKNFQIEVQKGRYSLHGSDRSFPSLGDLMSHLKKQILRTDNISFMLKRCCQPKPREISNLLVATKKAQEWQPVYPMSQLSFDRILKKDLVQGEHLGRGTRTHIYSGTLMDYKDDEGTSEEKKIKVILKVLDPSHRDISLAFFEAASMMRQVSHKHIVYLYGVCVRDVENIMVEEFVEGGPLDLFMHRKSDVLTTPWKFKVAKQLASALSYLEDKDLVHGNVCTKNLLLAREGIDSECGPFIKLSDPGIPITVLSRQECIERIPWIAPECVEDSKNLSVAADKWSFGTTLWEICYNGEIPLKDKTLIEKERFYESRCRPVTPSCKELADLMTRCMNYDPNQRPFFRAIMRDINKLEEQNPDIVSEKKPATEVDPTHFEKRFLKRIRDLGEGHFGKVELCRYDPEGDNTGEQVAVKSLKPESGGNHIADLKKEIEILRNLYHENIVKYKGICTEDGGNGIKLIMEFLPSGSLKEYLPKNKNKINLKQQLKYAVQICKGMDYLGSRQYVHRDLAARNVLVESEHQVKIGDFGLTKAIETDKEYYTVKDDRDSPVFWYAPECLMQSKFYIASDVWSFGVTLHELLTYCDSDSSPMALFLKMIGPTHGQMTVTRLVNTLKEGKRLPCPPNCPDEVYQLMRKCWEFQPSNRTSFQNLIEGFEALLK

[10] = target: Dual specificity protein kinase TTK (Homo sapiens) (UniProt P33981); experiment: Inhibition of human recombinant full-length GST-tagged TTK expressed in baculovirus expression system at 1 uM
[11] = target: Serine/threonine-protein kinase Chk2 (Homo sapiens) (UniProt O96017); experiment: Inhibition of human recombinant full-length His-tagged CHK2 expressed in baculovirus expression system at 1 uM
Sequence of Serine/threonine-protein kinase Chk2 (Homo sapiens) (O96017 whole entry, the tested form may be a part): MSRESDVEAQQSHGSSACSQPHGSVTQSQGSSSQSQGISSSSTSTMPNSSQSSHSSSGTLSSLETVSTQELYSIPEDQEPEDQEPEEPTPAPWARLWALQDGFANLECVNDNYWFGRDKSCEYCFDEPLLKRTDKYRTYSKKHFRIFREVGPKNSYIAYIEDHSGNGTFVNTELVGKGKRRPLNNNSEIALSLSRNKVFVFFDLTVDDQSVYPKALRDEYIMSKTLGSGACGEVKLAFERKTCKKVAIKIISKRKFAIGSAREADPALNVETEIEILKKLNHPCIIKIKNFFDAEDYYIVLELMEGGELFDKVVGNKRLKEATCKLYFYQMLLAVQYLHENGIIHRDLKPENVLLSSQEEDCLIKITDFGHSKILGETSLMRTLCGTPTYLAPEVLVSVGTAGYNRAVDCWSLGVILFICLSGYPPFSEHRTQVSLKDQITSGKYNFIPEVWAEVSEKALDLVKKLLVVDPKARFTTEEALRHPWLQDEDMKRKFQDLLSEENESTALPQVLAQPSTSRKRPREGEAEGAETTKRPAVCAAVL

[12] = target: High affinity nerve growth factor receptor (Homo sapiens) (UniProt P04629); experiment: Inhibition of human recombinant His-tagged NTRK1 cytoplasmic domain (441 to 796 residues) expressed in baculovirus expression system at 1 uM
[13] = target: Cyclin-dependent kinase 2 (Homo sapiens) (UniProt P24941); experiment: Inhibition of CDK2 (unknown origin) at 1 uM
[14] = target: Platelet-derived growth factor receptor beta (Homo sapiens) (UniProt P09619); experiment: Inhibition of human recombinant His-tagged PDGFRbeta cytoplasmic domain (558 to 1106 residues) expressed in baculovirus expression system at 1 uM
[15] = target: Tyrosine-protein kinase ABL1 (Homo sapiens) (UniProt P00519); experiment: Inhibition of human recombinant full-length His-tagged ABL1 cytoplasmic domain expressed in baculovirus expression system at 1 uM
[16] = target: Rho-associated protein kinase 1 (Homo sapiens) (UniProt Q13464); experiment: Inhibition of human recombinant GST-tagged ROCK1 catalytic domain (1 to 535 residues) expressed in baculovirus expression system at 1 uM
Sequence of Rho-associated protein kinase 1 (Homo sapiens) (Q13464 2-1354 limits assumed): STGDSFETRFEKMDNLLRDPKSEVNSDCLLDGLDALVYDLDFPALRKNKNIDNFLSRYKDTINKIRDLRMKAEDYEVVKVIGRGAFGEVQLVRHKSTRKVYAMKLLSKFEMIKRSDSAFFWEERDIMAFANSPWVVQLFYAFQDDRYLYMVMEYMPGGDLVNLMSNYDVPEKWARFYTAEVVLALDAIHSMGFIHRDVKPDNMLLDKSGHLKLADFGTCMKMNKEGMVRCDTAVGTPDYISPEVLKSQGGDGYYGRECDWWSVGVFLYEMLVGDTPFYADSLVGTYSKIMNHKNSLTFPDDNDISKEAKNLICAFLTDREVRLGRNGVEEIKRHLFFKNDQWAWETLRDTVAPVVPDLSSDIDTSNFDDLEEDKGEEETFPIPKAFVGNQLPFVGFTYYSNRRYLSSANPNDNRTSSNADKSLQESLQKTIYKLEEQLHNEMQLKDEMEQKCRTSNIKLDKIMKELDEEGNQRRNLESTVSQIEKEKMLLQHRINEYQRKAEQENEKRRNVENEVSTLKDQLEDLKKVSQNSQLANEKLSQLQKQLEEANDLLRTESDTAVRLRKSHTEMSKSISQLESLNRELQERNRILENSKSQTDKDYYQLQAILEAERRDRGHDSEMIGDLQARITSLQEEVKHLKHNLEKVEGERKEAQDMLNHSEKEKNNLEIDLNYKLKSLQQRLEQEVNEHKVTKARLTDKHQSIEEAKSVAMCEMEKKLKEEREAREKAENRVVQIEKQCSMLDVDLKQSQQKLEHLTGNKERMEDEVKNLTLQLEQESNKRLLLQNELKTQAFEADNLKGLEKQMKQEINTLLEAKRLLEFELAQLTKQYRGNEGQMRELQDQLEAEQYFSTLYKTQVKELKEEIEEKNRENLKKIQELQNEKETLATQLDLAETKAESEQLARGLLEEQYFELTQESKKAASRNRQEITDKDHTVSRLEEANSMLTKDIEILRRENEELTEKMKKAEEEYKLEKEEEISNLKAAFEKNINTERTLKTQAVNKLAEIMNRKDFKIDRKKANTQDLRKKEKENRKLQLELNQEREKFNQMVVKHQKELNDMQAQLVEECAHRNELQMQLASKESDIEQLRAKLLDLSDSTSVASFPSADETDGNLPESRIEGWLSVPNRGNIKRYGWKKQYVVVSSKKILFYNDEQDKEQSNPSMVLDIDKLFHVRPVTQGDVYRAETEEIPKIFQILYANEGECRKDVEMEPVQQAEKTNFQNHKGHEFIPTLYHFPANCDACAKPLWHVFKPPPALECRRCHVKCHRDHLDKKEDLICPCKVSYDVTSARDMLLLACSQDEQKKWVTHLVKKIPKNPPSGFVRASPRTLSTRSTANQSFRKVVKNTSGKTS

Aurora kinase B [17] = target: T1, Aurora kinase B; experiment: Inhibition of human recombinant full-length His-tagged Aurora B expressed in baculovirus expression system at 1 uM
[18] = target: Mast/stem cell growth factor receptor Kit (Homo sapiens) (UniProt P10721); experiment: Inhibition of human recombinant His-tagged KIT cytoplasmic domain (544 to 976 residues) expressed in baculovirus expression system at 1 uM
Sequence of Mast/stem cell growth factor receptor Kit (Homo sapiens) (P10721 whole entry, the tested form may be a part): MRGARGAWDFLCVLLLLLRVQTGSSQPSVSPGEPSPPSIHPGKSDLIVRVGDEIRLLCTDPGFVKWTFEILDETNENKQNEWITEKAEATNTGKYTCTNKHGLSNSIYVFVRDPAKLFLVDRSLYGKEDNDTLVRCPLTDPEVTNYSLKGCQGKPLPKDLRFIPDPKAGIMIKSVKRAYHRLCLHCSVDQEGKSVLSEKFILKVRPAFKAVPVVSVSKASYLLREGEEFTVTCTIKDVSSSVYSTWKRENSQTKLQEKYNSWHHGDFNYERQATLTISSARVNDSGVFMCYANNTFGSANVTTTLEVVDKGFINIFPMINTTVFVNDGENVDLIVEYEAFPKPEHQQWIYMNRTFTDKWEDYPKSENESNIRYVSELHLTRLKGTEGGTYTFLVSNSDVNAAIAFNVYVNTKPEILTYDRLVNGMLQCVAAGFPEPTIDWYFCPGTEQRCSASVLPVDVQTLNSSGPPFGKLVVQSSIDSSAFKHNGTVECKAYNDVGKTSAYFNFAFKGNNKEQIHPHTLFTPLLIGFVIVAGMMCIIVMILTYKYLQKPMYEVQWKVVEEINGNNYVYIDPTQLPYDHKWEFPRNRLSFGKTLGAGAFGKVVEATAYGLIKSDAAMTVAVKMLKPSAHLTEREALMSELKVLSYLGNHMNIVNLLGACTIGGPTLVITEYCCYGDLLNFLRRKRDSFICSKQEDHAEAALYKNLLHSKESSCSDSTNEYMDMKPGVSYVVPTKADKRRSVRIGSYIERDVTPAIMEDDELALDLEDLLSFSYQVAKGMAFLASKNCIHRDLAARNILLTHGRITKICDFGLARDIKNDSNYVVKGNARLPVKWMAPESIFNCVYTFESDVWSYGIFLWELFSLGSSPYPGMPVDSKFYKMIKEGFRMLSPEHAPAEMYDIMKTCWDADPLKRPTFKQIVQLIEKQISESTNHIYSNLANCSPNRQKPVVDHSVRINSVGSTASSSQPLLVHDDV

[19] = target: Serine/threonine-protein kinase Chk1 (Homo sapiens) (UniProt O14757); experiment: Inhibition of human recombinant full-length His-tagged CHK1 expressed in baculovirus expression system at 1 uM
[20] = target: Proto-oncogene tyrosine-protein kinase receptor Ret (Homo sapiens) (UniProt P07949); experiment: Inhibition of human recombinant GST-tagged RET cytoplasmic domain (658 to 1114 residues) expressed in baculovirus expression system at 1 uM
[21] = target: Vascular endothelial growth factor receptor 1 (Homo sapiens, UniProt P17948); experiment: Inhibition of human recombinant GST-tagged FLT1 cytoplasmic domain (781 to 1338 residues) expressed in baculovirus expression system at 1 uM
[22] = target: Cyclin-dependent kinase 1 (Homo sapiens) (UniProt P06493); experiment: Inhibition of CDK1 (unknown origin) at 1 uM
Sequence of Cyclin-dependent kinase 1 (Homo sapiens) (P06493 whole entry, looked up, the tested form may be a part): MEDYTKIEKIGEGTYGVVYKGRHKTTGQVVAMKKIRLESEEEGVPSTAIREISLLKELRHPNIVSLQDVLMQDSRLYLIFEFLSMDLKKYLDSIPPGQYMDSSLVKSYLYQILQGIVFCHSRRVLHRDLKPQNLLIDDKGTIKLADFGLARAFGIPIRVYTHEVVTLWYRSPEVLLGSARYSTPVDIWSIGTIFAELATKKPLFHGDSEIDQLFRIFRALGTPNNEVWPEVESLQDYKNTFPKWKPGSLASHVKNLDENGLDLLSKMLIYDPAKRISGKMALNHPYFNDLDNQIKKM

[23] = target: Platelet-derived growth factor receptor alpha (Homo sapiens) (UniProt P16234); experiment: Inhibition of human recombinant GST-tagged PDGFRalpha cytoplasmic domain (550 to 1089 residues) expressed in baculovirus expression system at 1 uM
[24] = target: Vascular endothelial growth factor receptor 3 (Homo sapiens, UniProt P35916); experiment: Inhibition of human recombinant GST-tagged FLT4 cytoplasmic domain (800 to 1297 residues) expressed in baculovirus expression system at 1 uM
[25] = target: Phosphatidylinositol 4-phosphate 3-kinase C2 domain-containing subunit beta (Homo sapiens) (UniProt O00750); experiment: Inhibition of human recombinant N-terminal GST-tagged PIK3C2B (155 to 1383 residues) catalytic domain expressed in baculovirus expression system at 1 uM
Aurora kinase C = Aurora kinase C (Homo sapiens, UniProt Q9UQB9); experiment: Inhibition of human recombinant full-length N-terminal GST-tagged Aurora C (1 to 275 end residues) expressed in baculovirus expression system using GLRRASLG-NH2 as substrate after 20 mins in presence of [gamma-33P]-ATP by liquid scintillation counting
Sequence of Aurora kinase C (Q9UQB9 whole entry): as the sequence (Q9UQB9 whole entry, the tested form may be a part) above

T1 sequence (Q96GD4 whole entry): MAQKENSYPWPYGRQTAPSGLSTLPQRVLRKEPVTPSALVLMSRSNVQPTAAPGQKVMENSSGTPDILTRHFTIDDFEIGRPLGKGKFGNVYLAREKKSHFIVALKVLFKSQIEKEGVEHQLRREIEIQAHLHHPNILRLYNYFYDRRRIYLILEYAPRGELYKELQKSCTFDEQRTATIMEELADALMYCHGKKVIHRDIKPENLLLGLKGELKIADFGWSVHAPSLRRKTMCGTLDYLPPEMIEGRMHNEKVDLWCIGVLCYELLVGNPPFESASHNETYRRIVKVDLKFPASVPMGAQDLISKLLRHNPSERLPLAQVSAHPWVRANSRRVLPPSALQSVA

- IC50 (Aurora kinase B [1]): 64 nM
Compound: CCOC(=O)CCC(=O)Nc1cccc(-c2n[nH]c3ccc(NS(=O)(=O)c4ccccc4)cc23)c1
- GI50 [2]: 1900 nM

- IC50 (Aurora kinase B [1]): 31 nM
Compound: COc1ccc(S(=O)(=O)Nc2ccc3[nH]nc(-c4cccc(NC(=O)/C=C\C(=O)O)c4)c3c2)cc1
- GI50 [2]: > 20000 nM

Compound: O=C(O)/C=C/C(=O)Nc1cccc(-c2n[nH]c3ccc(NS(=O)(=O)c4ccccc4)cc23)c1
- GI50 [2]: > 20000 nM

- IC50 (Aurora kinase B [1]): 28 nM
Compound: O=C(O)CCC(=O)Nc1cccc(-c2n[nH]c3ccc(NS(=O)(=O)c4ccccc4)cc23)c1
- GI50 [2]: > 20000 nM

Compound: O=C(O)/C=C\C(=O)Nc1cccc(-c2n[nH]c3ccc(NS(=O)(=O)c4ccc(-c5ccccc5)cc4)cc23)c1
- GI50 [2]: > 20000 nM

Compound: CC(C)(C)c1ccc(S(=O)(=O)Nc2ccc3[nH]nc(-c4cccc(NC(=O)/C=C\C(=O)O)c4)c3c2)cc1
- GI50 [2]: > 20000 nM

- IC50 (Aurora kinase B [1]): 26 nM
Compound: O=C(O)/C=C\C(=O)Nc1cccc(-c2n[nH]c3ccc(NS(=O)(=O)c4ccc([N+](=O)[O-])cc4)cc23)c1
- GI50 [2]: > 20000 nM

- IC50 (Aurora kinase B [1]): 32 nM
Compound: Cc1ccc(S(=O)(=O)Nc2ccc3[nH]nc(-c4cccc(NC(=O)/C=C\C(=O)O)c4)c3c2)cc1
- GI50 [2]: > 20000 nM

- IC50 (Aurora kinase B [1]): 48 nM
Compound: COC(=O)CCC(=O)Nc1cccc(-c2n[nH]c3ccc(NS(=O)(=O)c4ccccc4)cc23)c1
- GI50 [2]: 12000 nM

- IC50 (Aurora kinase B [1]): 49 nM
Compound: NC(=O)CCC(=O)Nc1cccc(-c2n[nH]c3ccc(NS(=O)(=O)c4ccccc4)cc23)c1
- GI50 [2]: > 20000 nM

- IC50 (Aurora kinase B [1]): 220 nM
Compound: CC(C)OC(=O)CCC(=O)Nc1cccc(-c2n[nH]c3ccc(NS(=O)(=O)c4ccccc4)cc23)c1
- GI50 [2]: > 20000 nM

Compound: O=C(O)/C=C\C(=O)Nc1cccc(-c2n[nH]c3ccc(NS(=O)(=O)c4ccccc4)cc23)c1
- inhibition [3]: 94%
- inhibition [4]: 85%
- inhibition [5]: 8%
- inhibition [6]: 48%
- inhibition [7]: 1%
- inhibition [8]: 48%
- inhibition [9]: 39%
- inhibition [10]: 93%
- IC50 (Aurora kinase B [1]): 15 nM
- inhibition [11]: 8%
- inhibition [12]: 58%
- GI50 [2]: > 20000 nM
- inhibition [13]: 17%
- inhibition [14]: -2%
- inhibition [15]: 31%
- inhibition [16]: 10%
- inhibition (Aurora kinase B [17]): 89%
- inhibition [18]: -4%
- inhibition [19]: 16%
- inhibition [20]: 61%
- inhibition [21]: 1%
- inhibition [22]: 21%
- inhibition [23]: 24%
- inhibition [24]: 64%
- inhibition [25]: 20%

- IC50 (Aurora kinase C): 12 nM
Compound: O=C(O)[C@]1(Cc2cccc(Nc3nccs3)n2)CC[C@@H](Oc2cccc(Cl)c2F)CC1 [MK-5108]

- IC50 (Aurora kinase B [1]): > 1000 nM
Compound: CC#CC(=O)Nc1cccc(-c2n[nH]c3ccc(NS(=O)(=O)c4ccccc4)cc23)c1
- GI50 [2]: 3600 nM

- IC50 (Aurora kinase B [1]): 30 nM
Compound: O=C(O)/C=C\C(=O)Nc1cccc(-c2n[nH]c3ccc(NS(=O)(=O)c4ccc(F)cc4)cc23)c1
- GI50 [2]: > 20000 nM
